Key:
[1] = target: Serine/threonine-protein kinase MARK2 (Homo sapiens) (UniProt Q7KZI7); settings: Compound concentration 1000.0 nM
[2] = target: Hormonally up-regulated neu tumor-associated kinase (Homo sapiens) (UniProt P57058); settings: Compound concentration 1000.0 nM
[3] = target: Maternal embryonic leucine zipper kinase (Homo sapiens) (UniProt Q14680); settings: Compound concentration 1000.0 nM
[4] = target: Serine/threonine-protein kinase pim-3 (Homo sapiens) (UniProt Q86V86); settings: Compound concentration 1000.0 nM
[5] = target: Wee1-like protein kinase 2 (Homo sapiens) (UniProt P0C1S8); settings: Compound concentration 1000.0 nM
[6] = target: Mitogen-activated protein kinase kinase kinase 15 (Homo sapiens) (UniProt Q6ZN16); settings: Compound concentration 1000.0 nM
[7] = system: Phosphatidylinositol 4,5-bisphosphate 3-kinase catalytic subunit alpha isoform (Homo sapiens), P42336 [H1047L]; settings: Compound concentration 1000.0 nM
[8] = target: Membrane-associated tyrosine- and threonine-specific cdc2-inhibitory kinase (Homo sapiens) (UniProt Q99640); settings: Compound concentration 1000.0 nM
[9] = target: Serine/threonine-protein kinase Nek11 (Homo sapiens) (UniProt Q8NG66); settings: Compound concentration 1000.0 nM
[10] = target: Serine/threonine-protein kinase RIO2 (Homo sapiens) (UniProt Q9BVS4); settings: Compound concentration 1000.0 nM
[11] = target: Peripheral plasma membrane protein CASK (Homo sapiens) (UniProt O14936); settings: Compound concentration 1000.0 nM
[12] = system: ALK tyrosine kinase receptor (Homo sapiens), Q9UM73 [L1196M]; settings: Compound concentration 1000.0 nM
[13] = target: Phosphatidylinositol 4-phosphate 5-kinase type-1 gamma (Homo sapiens) (UniProt O60331); settings: Compound concentration 1000.0 nM
[14] = target: Serine/threonine-protein kinase PRP4 homolog (Homo sapiens) (UniProt Q13523); settings: Compound concentration 1000.0 nM
[15] = target: Ephrin type-A receptor 5 (Homo sapiens) (UniProt P54756); settings: Compound concentration 1000.0 nM
[16] = system: Receptor-type tyrosine-protein kinase FLT3 (Homo sapiens), P36888 [UNDEFINED MUTATION]; settings: Compound concentration 1000.0 nM
[17] = target: Homeodomain-interacting protein kinase 2 (Homo sapiens) (UniProt Q9H2X6); settings: Compound concentration 1000.0 nM
[18] = target: Ribosomal protein S6 kinase alpha-4 (Homo sapiens) (UniProt O75676); settings: Compound concentration 1000.0 nM
[19] = target: Ribosomal protein S6 kinase alpha-3 (Homo sapiens) (UniProt P51812); settings: Compound concentration 1000.0 nM
[20] = target: Ribosomal protein S6 kinase alpha-5 (Homo sapiens) (UniProt O75582); settings: Compound concentration 1000.0 nM
[21] = system: Tyrosine-protein kinase ABL1 (Homo sapiens), P00519 [F317I]; settings: Compound concentration 1000.0 nM
[22] = target: LIM domain kinase 2 (Homo sapiens) (UniProt P53671); settings: Compound concentration 1000.0 nM
[23] = target: Bone morphogenetic protein receptor type-1A (Homo sapiens) (UniProt P36894); settings: Compound concentration 1000.0 nM
[24] = target: Dual specificity mitogen-activated protein kinase kinase 5 (Homo sapiens) (UniProt Q13163); settings: Compound concentration 1000.0 nM
[25] = target: TGF-beta receptor type-2 (Homo sapiens) (UniProt P37173); settings: Compound concentration 1000.0 nM
[26] = target: Serine/threonine-protein kinase Nek2 (Homo sapiens) (UniProt P51955); settings: Compound concentration 1000.0 nM
[27] = target: Serine/threonine-protein kinase 24 (Homo sapiens) (UniProt Q9Y6E0); settings: Compound concentration 1000.0 nM
[28] = target: Ephrin type-B receptor 3 (Homo sapiens) (UniProt P54753); settings: Compound concentration 1000.0 nM
[29] = target: Dual specificity protein kinase CLK2 (Homo sapiens) (UniProt P49760); settings: Compound concentration 1000.0 nM
[30] = target: Glycogen synthase kinase-3 beta (Homo sapiens) (UniProt P49841); settings: Compound concentration 1000.0 nM
[31] = system: Receptor-type tyrosine-protein kinase FLT3 (Homo sapiens), P36888 [R834Q]; settings: Compound concentration 1000.0 nM
[32] = target: Leukocyte tyrosine kinase receptor (Homo sapiens) (UniProt P29376); settings: Compound concentration 1000.0 nM
[33] = target: Ribosomal protein S6 kinase alpha-1 (Homo sapiens) (UniProt Q15418); settings: Compound concentration 1000.0 nM
[34] = target: Tyrosine-protein kinase Fer (Homo sapiens) (UniProt P16591); settings: Compound concentration 1000.0 nM
[35] = target: Casein kinase I isoform gamma-3 (Homo sapiens) (UniProt Q9Y6M4); settings: Compound concentration 1000.0 nM
[36] = target: Serine/threonine-protein kinase VRK2 (Homo sapiens) (UniProt Q86Y07); settings: Compound concentration 1000.0 nM
[37] = system: Mast/stem cell growth factor receptor Kit (Homo sapiens), P10721 [V559D,T670I]; settings: Compound concentration 1000.0 nM
[38] = target: Homeodomain-interacting protein kinase 1 (Homo sapiens) (UniProt Q86Z02); settings: Compound concentration 1000.0 nM
[39] = target: Beta-3 adrenergic receptor (Homo sapiens) (UniProt P13945); settings: Compound concentration 10.0 uM
[40] = target: Sigma intracellular receptor 2 (Homo sapiens) (UniProt Q5BJF2); settings: Compound concentration 10.0 uM
[41] = target: Serine/threonine-protein kinase pim-2 (Homo sapiens) (UniProt Q9P1W9); settings: Compound concentration 1000.0 nM
[42] = target: Dual specificity mitogen-activated protein kinase kinase 2 (Homo sapiens) (UniProt P36507); settings: Compound concentration 1000.0 nM
[43] = target: Serine/threonine-protein kinase PAK 3 (Homo sapiens) (UniProt O75914); settings: Compound concentration 1000.0 nM
[44] = target: Mitogen-activated protein kinase kinase kinase kinase 2 (Homo sapiens) (UniProt Q12851); settings: Compound concentration 1000.0 nM
[45] = target: Ribosomal protein S6 kinase alpha-6 (Homo sapiens) (UniProt Q9UK32); settings: Compound concentration 1000.0 nM

Sequence of LIM domain kinase 2 (Homo sapiens) (P53671 whole entry, looked up, the tested form may be a part): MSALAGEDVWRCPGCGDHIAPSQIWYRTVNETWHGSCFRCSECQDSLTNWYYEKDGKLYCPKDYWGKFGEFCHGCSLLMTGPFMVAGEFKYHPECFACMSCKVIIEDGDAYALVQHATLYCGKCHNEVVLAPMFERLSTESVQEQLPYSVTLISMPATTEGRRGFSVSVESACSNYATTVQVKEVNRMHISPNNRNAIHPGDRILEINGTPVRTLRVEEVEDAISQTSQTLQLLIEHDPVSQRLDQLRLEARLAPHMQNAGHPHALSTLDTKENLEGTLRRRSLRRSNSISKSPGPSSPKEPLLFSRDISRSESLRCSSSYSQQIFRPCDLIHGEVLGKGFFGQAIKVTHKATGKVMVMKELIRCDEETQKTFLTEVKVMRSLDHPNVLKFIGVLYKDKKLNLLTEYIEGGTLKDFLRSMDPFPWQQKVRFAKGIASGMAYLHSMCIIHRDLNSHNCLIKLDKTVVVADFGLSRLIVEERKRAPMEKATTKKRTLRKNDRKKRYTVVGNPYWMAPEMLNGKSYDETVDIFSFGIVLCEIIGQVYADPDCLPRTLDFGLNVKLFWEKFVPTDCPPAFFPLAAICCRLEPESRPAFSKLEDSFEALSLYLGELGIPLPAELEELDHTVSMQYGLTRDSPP
Sequence of Mitogen-activated protein kinase kinase kinase kinase 2 (Homo sapiens) (Q12851 whole entry): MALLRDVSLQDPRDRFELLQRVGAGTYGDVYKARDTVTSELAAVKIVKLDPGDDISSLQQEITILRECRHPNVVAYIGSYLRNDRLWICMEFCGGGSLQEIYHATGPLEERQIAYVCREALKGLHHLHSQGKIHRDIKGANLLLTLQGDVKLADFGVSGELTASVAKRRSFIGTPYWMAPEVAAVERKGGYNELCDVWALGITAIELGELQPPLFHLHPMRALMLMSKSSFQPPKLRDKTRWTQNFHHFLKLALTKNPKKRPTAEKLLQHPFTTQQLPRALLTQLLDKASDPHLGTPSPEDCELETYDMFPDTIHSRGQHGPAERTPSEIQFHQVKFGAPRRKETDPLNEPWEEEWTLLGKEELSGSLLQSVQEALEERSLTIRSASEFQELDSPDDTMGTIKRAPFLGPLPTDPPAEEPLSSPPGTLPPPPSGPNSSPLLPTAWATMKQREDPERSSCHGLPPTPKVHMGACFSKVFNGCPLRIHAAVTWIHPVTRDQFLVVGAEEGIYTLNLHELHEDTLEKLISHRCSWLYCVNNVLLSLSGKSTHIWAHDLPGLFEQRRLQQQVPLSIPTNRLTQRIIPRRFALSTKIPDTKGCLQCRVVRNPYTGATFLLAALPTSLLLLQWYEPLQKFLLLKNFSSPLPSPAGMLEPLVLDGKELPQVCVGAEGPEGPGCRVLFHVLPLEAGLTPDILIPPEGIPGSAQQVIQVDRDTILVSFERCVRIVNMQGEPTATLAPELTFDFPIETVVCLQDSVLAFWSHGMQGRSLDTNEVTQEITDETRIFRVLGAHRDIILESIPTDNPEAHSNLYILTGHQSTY
Sequence of Serine/threonine-protein kinase RIO2 (Homo sapiens) (Q9BVS4 whole entry, looked up): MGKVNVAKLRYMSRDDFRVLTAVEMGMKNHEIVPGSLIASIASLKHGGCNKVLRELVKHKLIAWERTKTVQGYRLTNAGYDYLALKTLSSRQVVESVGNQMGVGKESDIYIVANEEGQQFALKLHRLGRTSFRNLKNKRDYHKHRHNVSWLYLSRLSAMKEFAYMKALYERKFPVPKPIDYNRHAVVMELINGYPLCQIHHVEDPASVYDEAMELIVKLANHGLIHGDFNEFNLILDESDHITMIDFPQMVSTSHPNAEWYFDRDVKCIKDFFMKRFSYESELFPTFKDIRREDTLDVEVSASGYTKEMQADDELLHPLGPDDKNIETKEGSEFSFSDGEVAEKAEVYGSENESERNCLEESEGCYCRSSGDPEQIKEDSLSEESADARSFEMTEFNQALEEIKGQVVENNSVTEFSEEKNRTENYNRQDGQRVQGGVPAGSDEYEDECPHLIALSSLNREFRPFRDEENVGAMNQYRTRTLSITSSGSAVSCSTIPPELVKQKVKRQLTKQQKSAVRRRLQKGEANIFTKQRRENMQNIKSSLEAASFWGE
Sequence of Bone morphogenetic protein receptor type-1A (Homo sapiens) (P36894 whole entry): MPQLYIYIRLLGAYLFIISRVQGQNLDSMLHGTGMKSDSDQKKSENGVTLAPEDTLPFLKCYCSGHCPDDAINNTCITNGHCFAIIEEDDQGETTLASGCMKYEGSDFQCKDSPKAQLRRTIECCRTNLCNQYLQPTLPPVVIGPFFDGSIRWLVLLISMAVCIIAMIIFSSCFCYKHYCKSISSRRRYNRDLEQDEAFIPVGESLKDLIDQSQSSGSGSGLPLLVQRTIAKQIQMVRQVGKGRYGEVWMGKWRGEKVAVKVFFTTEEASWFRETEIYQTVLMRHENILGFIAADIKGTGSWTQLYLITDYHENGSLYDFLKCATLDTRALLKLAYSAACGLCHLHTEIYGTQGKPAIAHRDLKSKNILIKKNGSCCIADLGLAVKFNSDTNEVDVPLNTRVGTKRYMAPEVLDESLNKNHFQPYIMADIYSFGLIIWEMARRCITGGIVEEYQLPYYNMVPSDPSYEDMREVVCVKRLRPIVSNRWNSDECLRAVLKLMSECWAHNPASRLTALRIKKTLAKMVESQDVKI
Sequence of Phosphatidylinositol 4,5-bisphosphate 3-kinase catalytic subunit alpha isoform (Homo sapiens), P42336 [H1047L] (P42336 whole entry H1047L, canonical isoform): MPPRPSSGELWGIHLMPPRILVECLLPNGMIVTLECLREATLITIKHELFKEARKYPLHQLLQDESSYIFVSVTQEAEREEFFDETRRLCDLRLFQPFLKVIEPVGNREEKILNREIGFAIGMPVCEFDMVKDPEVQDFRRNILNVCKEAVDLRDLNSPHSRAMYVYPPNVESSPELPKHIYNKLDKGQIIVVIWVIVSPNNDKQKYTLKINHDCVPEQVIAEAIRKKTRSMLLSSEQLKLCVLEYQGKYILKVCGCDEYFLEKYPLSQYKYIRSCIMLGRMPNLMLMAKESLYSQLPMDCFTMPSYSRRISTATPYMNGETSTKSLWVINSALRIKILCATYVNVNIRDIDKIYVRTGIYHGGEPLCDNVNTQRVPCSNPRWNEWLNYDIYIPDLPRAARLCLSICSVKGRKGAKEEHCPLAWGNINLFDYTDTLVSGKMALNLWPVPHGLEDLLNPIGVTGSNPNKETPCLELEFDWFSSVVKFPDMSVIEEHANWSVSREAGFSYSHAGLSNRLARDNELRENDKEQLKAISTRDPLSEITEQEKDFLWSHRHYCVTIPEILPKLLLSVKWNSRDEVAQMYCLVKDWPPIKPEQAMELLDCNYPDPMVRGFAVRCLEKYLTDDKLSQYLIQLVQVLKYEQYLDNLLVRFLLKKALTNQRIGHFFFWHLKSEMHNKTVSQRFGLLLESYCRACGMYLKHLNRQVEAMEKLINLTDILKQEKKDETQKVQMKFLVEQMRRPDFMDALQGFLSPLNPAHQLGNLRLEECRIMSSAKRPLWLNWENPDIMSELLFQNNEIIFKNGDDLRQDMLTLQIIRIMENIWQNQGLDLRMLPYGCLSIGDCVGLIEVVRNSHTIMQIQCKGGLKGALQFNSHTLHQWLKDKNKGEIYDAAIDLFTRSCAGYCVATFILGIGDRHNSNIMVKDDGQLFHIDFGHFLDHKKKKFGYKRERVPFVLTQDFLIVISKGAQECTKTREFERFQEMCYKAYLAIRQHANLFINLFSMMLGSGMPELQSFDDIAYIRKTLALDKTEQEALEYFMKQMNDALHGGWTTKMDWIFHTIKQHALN
Sequence of Serine/threonine-protein kinase Nek2 (Homo sapiens) (P51955 whole entry): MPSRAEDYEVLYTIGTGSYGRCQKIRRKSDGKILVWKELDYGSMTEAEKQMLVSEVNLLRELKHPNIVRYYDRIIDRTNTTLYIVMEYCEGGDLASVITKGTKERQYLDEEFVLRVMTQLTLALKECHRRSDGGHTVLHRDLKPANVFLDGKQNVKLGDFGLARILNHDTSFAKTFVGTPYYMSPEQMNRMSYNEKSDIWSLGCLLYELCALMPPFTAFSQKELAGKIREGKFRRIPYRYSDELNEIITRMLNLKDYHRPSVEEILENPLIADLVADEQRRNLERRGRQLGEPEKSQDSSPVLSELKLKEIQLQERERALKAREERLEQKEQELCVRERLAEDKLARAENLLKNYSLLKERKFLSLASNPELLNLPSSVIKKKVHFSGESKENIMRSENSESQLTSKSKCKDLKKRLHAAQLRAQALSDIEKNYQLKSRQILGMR
Sequence of Serine/threonine-protein kinase 24 (Homo sapiens) (Q9Y6E0 whole entry, looked up): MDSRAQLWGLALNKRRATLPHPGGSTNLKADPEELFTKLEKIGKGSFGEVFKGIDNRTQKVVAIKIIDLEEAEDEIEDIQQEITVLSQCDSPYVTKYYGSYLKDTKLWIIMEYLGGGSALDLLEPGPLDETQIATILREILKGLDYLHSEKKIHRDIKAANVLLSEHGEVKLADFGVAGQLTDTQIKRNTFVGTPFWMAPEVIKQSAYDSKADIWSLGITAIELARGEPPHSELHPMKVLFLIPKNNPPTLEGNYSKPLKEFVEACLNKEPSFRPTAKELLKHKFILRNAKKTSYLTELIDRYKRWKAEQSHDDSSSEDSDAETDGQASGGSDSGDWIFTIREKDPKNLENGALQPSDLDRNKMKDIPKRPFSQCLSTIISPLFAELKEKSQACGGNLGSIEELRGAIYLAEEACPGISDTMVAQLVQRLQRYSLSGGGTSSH
Sequence of Sigma intracellular receptor 2 (Homo sapiens) (Q5BJF2 whole entry): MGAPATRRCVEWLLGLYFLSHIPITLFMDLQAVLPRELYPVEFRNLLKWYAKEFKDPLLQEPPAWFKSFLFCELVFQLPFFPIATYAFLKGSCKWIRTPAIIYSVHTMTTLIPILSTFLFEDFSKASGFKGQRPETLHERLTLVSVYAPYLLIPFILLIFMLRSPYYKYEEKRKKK

CN([C@@H]1CCc2c(CC(=O)O)c3cc(S(C)(=O)=O)ccc3n2C1)S(=O)(=O)c1ccc(F)cc1
inactive: residual activity [1] 100% | residual activity [2] 100% | residual activity [3] 84% | residual activity [4] 100% | residual activity [5] 95% | residual activity [6] 93% | residual activity [7] 96% | residual activity [8] 100% | residual activity [9] 100% | residual activity [10] 96% | residual activity [11] 80% | residual activity [12] 89% | residual activity [13] 100% | residual activity [14] 100% | residual activity [15] 78% | residual activity [16] 91% | residual activity [17] 100% | residual activity [18] 100% | residual activity [19] 81% | residual activity [20] 71% | residual activity [21] 75% | residual activity [22] 100% | residual activity [23] 85% | residual activity [24] 100% | residual activity [25] 67% | residual activity [26] 100% | residual activity [27] 100% | residual activity [28] 90% | residual activity [29] 100% | residual activity [30] 85% | residual activity [31] 100% | residual activity [32] 100% | residual activity [33] 100% | residual activity [34] 100% | residual activity [35] 100% | residual activity [36] 94% | residual activity [37] 100% | residual activity [38] 77% | inhibition [39] 0.851% | inhibition [40] -9.3% | residual activity [41] 100% | residual activity [42] 95% | residual activity [43] 79% | residual activity [44] 90% | residual activity [45] 71%

CN([C@@H]1CCc2c(CC(=O)O)c3ccccc3n2C1)S(=O)(=O)c1ccc(F)cc1 [MK-7246]
inactive: residual activity [1] 100% | residual activity [2] 99% | residual activity [3] 93% | residual activity [4] 100% | residual activity [5] 100% | residual activity [6] 100% | residual activity [7] 100% | residual activity [8] 100% | residual activity [9] 100% | residual activity [10] 90% | residual activity [11] 66% | residual activity [12] 74% | residual activity [13] 100% | residual activity [14] 99% | residual activity [15] 99% | residual activity [16] 95% | residual activity [17] 100% | residual activity [18] 100% | residual activity [19] 86% | residual activity [20] 79% | residual activity [21] 79% | residual activity [22] 100% | residual activity [23] 100% | residual activity [24] 100% | residual activity [25] 100% | residual activity [26] 100% | residual activity [27] 100% | residual activity [28] 88% | residual activity [29] 94% | residual activity [30] 93% | residual activity [31] 100% | residual activity [32] 100% | residual activity [33] 100% | residual activity [34] 100% | residual activity [35] 100% | residual activity [36] 100% | residual activity [37] 100% | residual activity [38] 100% | inhibition [39] 26.9% | inhibition [40] -9.73% | residual activity [41] 100% | residual activity [42] 76% | residual activity [43] 98% | residual activity [44] 87% | residual activity [45] 100%

From ChEMBL document CHEMBL4507290 (2021)
